Assay results published in patent publication US20230303553A1, “CDK6/DYRK2 DUAL-TARGET INHIBITOR, AND PREPARATION METHOD THEREFOR AND USE THEREOF” (JIANGSU TASLY DIYI PHARMACEUTICAL CO., LTD., priority 2021, published 2023).
Like-named read-outs stand apart in the source and are kept apart here.

Experiments:
[1] = test system: colon cancer (HT-29) cell line; experiment: MTT cancer cell proliferation, HT-29; type: cell-based; conditions: Homo sapiens, HT-29, 72 h, read-out: IC50 proliferation HT-29
[2] = test system: prostate cancer (PC-3) cell line; experiment: MTT cancer cell proliferation, PC-3; type: cell-based; conditions: Homo sapiens, PC-3, 72 h, read-out: IC50 proliferation PC-3
lung cancer (A-549) = experiment: MTT cancer cell proliferation, A-549; type: cell-based; conditions: Homo sapiens, A549, 72 h, read-out: IC50 proliferation A-549
CDK6 kinase = CDK6 kinase (Homo sapiens (Human), UniProt Q00534); experiment: CDK6 kinase activity, Lance Ultra TR-FRET; type: biochemical
[3] = Pharmacokinetics in SD rats; type: in vivo; conditions: for half-life: read-out: t ½ (converted)
[4] = test system: human glioma (U251) cell line; experiment: MTT cancer cell proliferation, U251; type: cell-based; conditions: U-251, 72 h, read-out: IC50 proliferation U251
[5] = test system: ovarian cancer (SK-OV-3) cell line; experiment: MTT cancer cell proliferation, SK-OV-3; type: cell-based; conditions: Homo sapiens, SK-OV-3, 72 h, read-out: IC50 proliferation SK-OV-3
[6] = test system: leukemia (K562) cell line; experiment: MTT cancer cell proliferation, K562; type: cell-based; conditions: Homo sapiens, K562, 72 h, read-out: IC50 proliferation K-562
[7] = test system: non-small cell lung cancer (NCI-H1299) cell line; experiment: MTT cancer cell proliferation, NCI-H1299; type: cell-based; conditions: Homo sapiens, NCI-H1299, 72 h, read-out: IC50 proliferation NCI-H1299
[8] = test system: xenografts of human prostate cancer Du-145; experiment: Human prostate cancer Du-145 xenografts in nude mice; type: in vivo, BALB/c nude mice; conditions: for inhibition on tumor growth, in words: FIG. 3
[9] = test system: liver cancer (HepG2) cell line; experiment: MTT cancer cell proliferation, HepG2; type: cell-based; conditions: Homo sapiens, HepG2, 72 h, read-out: IC50 proliferation HepG2
[10] = test system: multiple myeloma (RPMI8226) cell line; experiment: MTT cancer cell proliferation, RPMI8226; type: cell-based; conditions: Homo sapiens, RPMI-8226, 72 h, read-out: IC50 proliferation RPMI8226
[11] = test system: pancreatic cancer (Panc-1) cell line; experiment: MTT cancer cell proliferation, Panc-1; type: cell-based; conditions: Homo sapiens, PANC-1, 72 h, read-out: IC50 proliferation Panc-1
[12] = test system: xenografts of human prostate cancer PC3; experiment: Human prostate cancer PC-3 xenografts in nude mice; type: in vivo, BALB/c nude mice; conditions: for relative tumor proliferation rate T/C(%) / tumor growth inhibition rate: PC-3 xenograft, 28 days
[13] = test system: triple negative breast cancer (MDA-MB-231) cell line; experiment: MTT cancer cell proliferation, MDA-MB-231; type: cell-based; conditions: Homo sapiens, MDA-MB-231, 72 h, read-out: IC50 proliferation MDA-MB-231
ICR mice = experiment: Acute toxicity in mice, single gavage; type: in vivo
DYRK2 kinase = DYRK2 kinase (Homo sapiens (Human), UniProt Q92630); experiment: DYRK2 kinase activity, 33P-ATP / Woodtide substrate; type: biochemical
[14] = test system: prostate cancer (Du-145) cell line; experiment: MTT cancer cell proliferation, Du-145; type: cell-based; conditions: Homo sapiens, DU-145, 72 h, read-out: IC50 proliferation Du-145
[15] = test system: gastric cancer (MGC-803) cell line; experiment: MTT cancer cell proliferation, MGC-803; type: cell-based; conditions: Homo sapiens, MGC-803, 72 h, read-out: IC50 proliferation MGC-803
[16] = test system: human breast cancer (MCF-7); experiment: MTT cancer cell proliferation, MCF-7; type: cell-based; conditions: MCF7, 72 h, read-out: IC50 proliferation MCF-7
[17] = test system: xenografts of human lung cancer A549; experiment: Human lung cancer A549 xenografts in nude mice; type: in vivo, BALB/c nude mice; conditions: for relative tumor proliferation rate T/C(%) / tumor growth inhibition rate: A549 xenograft, 21 days
[18] = rat, plasma, iv tail vein 1 mg/kg
[19] = rat, plasma, po gavage 10 mg/kg
[20] = Du-145 xenograft, 200 mg/kg intragastric once every day
[21] = 100 mg/kg intragastric once every day
[22] = 200 mg/kg intragastric once every day
[23] = 150 mg/kg intragastric once every 2 days
[24] = 300 mg/kg intragastric once every 2 days

Sequence of CDK6 kinase (Q00534 whole entry): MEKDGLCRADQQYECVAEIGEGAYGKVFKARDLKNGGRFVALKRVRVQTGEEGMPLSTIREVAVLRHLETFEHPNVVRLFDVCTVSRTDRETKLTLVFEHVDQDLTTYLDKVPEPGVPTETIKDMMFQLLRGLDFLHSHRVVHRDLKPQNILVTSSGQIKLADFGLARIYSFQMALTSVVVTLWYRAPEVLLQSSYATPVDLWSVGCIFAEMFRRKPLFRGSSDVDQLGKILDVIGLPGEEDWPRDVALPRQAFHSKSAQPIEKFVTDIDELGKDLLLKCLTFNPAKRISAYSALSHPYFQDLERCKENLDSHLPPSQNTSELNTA
Sequence of CDK6 kinase (P24385 whole entry partner): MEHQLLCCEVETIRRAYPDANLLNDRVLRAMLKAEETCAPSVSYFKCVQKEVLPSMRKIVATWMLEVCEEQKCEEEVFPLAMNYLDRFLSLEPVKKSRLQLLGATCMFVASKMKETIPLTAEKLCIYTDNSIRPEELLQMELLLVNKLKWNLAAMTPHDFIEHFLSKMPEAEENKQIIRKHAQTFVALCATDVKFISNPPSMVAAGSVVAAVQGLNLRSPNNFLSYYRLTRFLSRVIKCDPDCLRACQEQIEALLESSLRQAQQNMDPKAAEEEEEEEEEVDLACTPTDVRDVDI
Sequence of DYRK2 kinase (Q92630 whole entry): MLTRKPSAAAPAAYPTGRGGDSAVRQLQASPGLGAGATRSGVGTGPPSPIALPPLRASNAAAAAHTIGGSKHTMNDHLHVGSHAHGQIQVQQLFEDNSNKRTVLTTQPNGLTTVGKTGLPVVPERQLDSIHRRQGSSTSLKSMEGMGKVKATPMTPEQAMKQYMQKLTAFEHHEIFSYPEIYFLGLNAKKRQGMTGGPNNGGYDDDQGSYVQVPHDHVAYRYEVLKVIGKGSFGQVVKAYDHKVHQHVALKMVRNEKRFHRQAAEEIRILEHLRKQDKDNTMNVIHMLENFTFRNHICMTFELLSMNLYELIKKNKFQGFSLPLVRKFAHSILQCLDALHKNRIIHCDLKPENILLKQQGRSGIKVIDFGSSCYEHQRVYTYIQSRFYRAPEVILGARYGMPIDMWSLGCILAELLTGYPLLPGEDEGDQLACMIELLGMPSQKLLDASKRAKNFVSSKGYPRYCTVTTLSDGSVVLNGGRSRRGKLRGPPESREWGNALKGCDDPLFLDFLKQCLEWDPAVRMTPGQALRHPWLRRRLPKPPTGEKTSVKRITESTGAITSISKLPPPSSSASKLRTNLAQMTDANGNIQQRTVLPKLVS

Structure (SMILES): CCN1CCN(C(=O)c2ccc(Nc3ncc(F)c(-c4ccc5nc(N(C)C)sc5c4)n3)nc2)CC1 [Example 31, (6-((4-(2-(dimethylamino)benzothiazole-6-yl)-5-fluoropyrimidine-2-yl)amino)pyridine-3-yl)(4-ethylpiperazine-1-yl)ketone]
- IC50 [1]: 1870 nM
- IC50 [2]: 1060 nM
- IC50 (lung cancer (A-549)): 1640 nM
- IC50 (CDK6 kinase): 18 nM
- Pharmacokinetic assessment in words [3]: good metabolism in rats, good absorption and exposure and high bioavailability
- F (bioavailability) ([3]; po 10 mg/kg vs iv 1 mg/kg): 55.78%
- Cl ([3]; po gavage 10 mg/kg): 19.97 mL/min/kg
- AUC(0-inf) [3, 18]: 1500 ng·h/mL
- Cmax [3, 18]: 974 ng/mL
- Tmax [3, 18]: 0.033 h
- clearance [3, 18]: 11.1 mL/min/kg
- half-life [3, 18]: 2.99 h
- AUC(0-inf) [3, 19]: 8380 ng·h/mL
- Cmax [3, 19]: 674 ng/mL
- Tmax [3, 19]: 4 h
- half-life [3, 19]: 5.08 h
- IC50 [4]: 2150 nM
- IC50 [5]: 1780 nM
- IC50 [6]: 917 nM
- IC50 [7]: 2130 nM
- effect on growth of xenografts, in words ([8]; Du-145 xenograft in nude mice): significant inhibitory effect
- inhibition on tumor growth, in words ([8]; Du-145 xenograft, 100 mg/kg intragastric once every day, groups compared): better inhibition on tumor growth than the positive drug Palbociclib
- day on which tumor volume started to be reduced [8, 20]: 31 days
- inhibition on tumor growth, in words [8, 20]: significantly inhibited tumor growth
- IC50 [9]: 1540 nM
- IC50 [10]: 1080 nM
- IC50 [11]: 1930 nM
- effect on growth of xenografts, in words ([12]; PC-3 xenograft in nude mice): significant inhibitory effect
- relative tumor proliferation rate T/C(%) [12, 21]: 35.7%
- tumor growth inhibition rate [12, 21]: 64.3%
- relative tumor proliferation rate T/C(%) [12, 22]: 23.4%
- tumor growth inhibition rate [12, 22]: 76.6%
- IC50 [13]: 1750 nM
- Organ toxicity by HE staining (ICR mice; acute toxicity assay, FIG. 2): no significant toxicity to heart, liver, spleen, lung, kidney and other major organs
- Toxicity symptoms / abnormality (ICR mice; single gavage 2500, 5000 or 10000 mg/kg): no abnormality was found within 12 h after administration in all groups
- Death of mice (ICR mice; single gavage 2500, 5000 or 10000 mg/kg, 14 days observation): No animals died within 24h of dosing and no animals died after day 14 of dosing
- IC50 (DYRK2 kinase): 9 nM
- IC50 [14]: 3300 nM
- IC50 [15]: 2020 nM
- IC50 [16]: 1890 nM
- effect on growth of xenografts, in words ([17]; A549 xenograft in nude mice): significant inhibitory effect
- relative tumor proliferation rate T/C(%) [17, 23]: 44.8%
- tumor growth inhibition rate [17, 23]: 55.2%
- relative tumor proliferation rate T/C(%) [17, 24]: 35.9%
- tumor growth inhibition rate [17, 24]: 64.1%
